# Measurements taken from PMC10509173, “Deep learning driven de novo drug design based on gastric proton pump structures” (Communications Biology, 2023).
# “And” between values parts separate entries of the source, which are not always exact repeats. Equal entries are not always repeated. Where two headings read alike, the source gives them in different places.
# Assays:
# H+,K+-ATPase [1] = target: T1, H+,K+-ATPase (Sus scrofa, UniProt P19156); assay: K+-dependent ATPase assay, double reciprocal plot and Ki estimation; type: biochemical, pig; design: H^+,K^+-ATPase-enriched membrane fractions were purified from pig stomach; from tissue; host or cells: pig stomach (gastric membrane fractions); reciprocal K+-stimulated ATPase activity, Lineweaver-Burk raw data: unit not given here; conditions: for reciprocal K+-stimulated ATPase activity, Lineweaver-Burk raw data: replicate values
# Description: Data measured from 96-well plate contained triplicates of four different sets of K^+-dependent ATPase assays in the absence or presence of three different concentrations of synthesized compounds. Data were corrected for background values in the absence of K^+ at each compound concentration, and plot them against the double reciprocal axes in Supplementary Fig. 5. Data were also fitted by using simultaneous nonlinear regression as described previously to estimate their Ki values.
# H+,K+-ATPase [2] = target: T1, H+,K+-ATPase; assay: Dose-dependent inhibition of H+,K+-ATPase activity, membrane fractions; conditions: for H+,K+-ATPase activity, raw data of dose-dependent inhibition: single replicate values
# H+,K+-ATPase [3] = target: H+,K+-ATPase; design: method as in PMID 2837231; conditions: cited from earlier work
# H+,K+-ATPase [4] = system: H+,K+-ATPase; design: method as in PMID 35604136, PMID 28747707; conditions: cited from earlier work
# T1 sequence (P19156 2-1034 limits assumed): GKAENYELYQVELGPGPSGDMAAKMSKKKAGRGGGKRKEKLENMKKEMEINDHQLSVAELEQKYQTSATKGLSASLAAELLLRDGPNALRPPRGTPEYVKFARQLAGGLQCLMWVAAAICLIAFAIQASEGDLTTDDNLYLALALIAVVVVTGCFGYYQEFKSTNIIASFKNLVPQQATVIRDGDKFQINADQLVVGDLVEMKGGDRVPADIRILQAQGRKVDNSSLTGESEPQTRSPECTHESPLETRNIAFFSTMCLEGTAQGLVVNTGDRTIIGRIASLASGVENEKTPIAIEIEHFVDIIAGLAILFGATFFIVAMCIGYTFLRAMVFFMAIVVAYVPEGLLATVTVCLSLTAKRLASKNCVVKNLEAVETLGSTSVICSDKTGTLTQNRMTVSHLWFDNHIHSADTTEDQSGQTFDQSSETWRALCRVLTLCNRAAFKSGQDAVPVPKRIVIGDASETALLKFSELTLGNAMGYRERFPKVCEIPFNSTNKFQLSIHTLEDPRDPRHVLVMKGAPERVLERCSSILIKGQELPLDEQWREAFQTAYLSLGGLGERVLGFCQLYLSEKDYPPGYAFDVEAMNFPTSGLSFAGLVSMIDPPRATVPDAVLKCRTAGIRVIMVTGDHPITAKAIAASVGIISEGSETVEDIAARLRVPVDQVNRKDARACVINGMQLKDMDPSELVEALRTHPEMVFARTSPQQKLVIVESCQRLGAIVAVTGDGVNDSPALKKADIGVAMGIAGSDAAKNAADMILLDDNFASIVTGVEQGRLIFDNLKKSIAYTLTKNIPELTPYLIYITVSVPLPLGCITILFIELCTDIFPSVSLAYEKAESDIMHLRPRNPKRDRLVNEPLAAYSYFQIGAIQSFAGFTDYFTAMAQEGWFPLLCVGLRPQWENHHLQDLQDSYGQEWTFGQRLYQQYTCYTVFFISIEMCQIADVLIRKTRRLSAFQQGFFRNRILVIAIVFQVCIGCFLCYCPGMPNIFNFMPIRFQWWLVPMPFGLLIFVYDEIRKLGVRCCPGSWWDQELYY
# T1 sequence (P18434 whole entry partner): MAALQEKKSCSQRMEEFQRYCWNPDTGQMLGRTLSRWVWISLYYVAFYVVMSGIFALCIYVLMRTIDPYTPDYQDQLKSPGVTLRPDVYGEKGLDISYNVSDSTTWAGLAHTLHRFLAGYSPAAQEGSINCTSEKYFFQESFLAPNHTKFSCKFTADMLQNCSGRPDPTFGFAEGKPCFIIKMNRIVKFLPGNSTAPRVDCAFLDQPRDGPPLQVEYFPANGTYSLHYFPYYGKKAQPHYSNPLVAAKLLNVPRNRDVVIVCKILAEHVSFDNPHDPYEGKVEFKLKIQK
smiles,measurement,setting,value
CNCc1ccc(OCc2ccccc2OCc2ccccc2)cc1 [DQ-06],Ki,"H+,K+-ATPase [1]; K+-competitive inhibition, read-out: Ki",93.8 nM
same,"reciprocal K+-stimulated ATPase activity, Lineweaver-Burk raw data","H+,K+-ATPase [1]; compound concentration 50, 1/KCl 0.05 (units not given)",0.0059 and 0.0057 and 0.006
same,"reciprocal K+-stimulated ATPase activity, Lineweaver-Burk raw data","H+,K+-ATPase [1]; compound concentration 50, 1/KCl 0.1 (units not given)",0.0075 and 0.0077 and 0.0078
same,"reciprocal K+-stimulated ATPase activity, Lineweaver-Burk raw data","H+,K+-ATPase [1]; compound concentration 50, 1/KCl 0.125 (units not given)",0.0067 and 0.0066 and 0.007
same,"reciprocal K+-stimulated ATPase activity, Lineweaver-Burk raw data","H+,K+-ATPase [1]; compound concentration 50, 1/KCl 0.2 (units not given)",0.0088 and 0.0086 and 0.0089
same,"reciprocal K+-stimulated ATPase activity, Lineweaver-Burk raw data","H+,K+-ATPase [1]; compound concentration 50, 1/KCl 0.5 (units not given)",0.0111 and 0.011 and 0.0112
same,"reciprocal K+-stimulated ATPase activity, Lineweaver-Burk raw data","H+,K+-ATPase [1]; compound concentration 50, 1/KCl 1 (units not given)",0.0282 and 0.0275 and 0.0291
same,"reciprocal K+-stimulated ATPase activity, Lineweaver-Burk raw data","H+,K+-ATPase [1]; compound concentration 50, 1/KCl 2 (units not given)",0.035 and 0.034 and 0.0286
same,"reciprocal K+-stimulated ATPase activity, Lineweaver-Burk raw data","H+,K+-ATPase [1]; compound concentration 100, 1/KCl 0.05 (units not given)",0.0066 and 0.0063 and 0.0065
same,"reciprocal K+-stimulated ATPase activity, Lineweaver-Burk raw data","H+,K+-ATPase [1]; compound concentration 100, 1/KCl 0.1 (units not given)",0.0087 and 0.0094 and 0.0098
same,"reciprocal K+-stimulated ATPase activity, Lineweaver-Burk raw data","H+,K+-ATPase [1]; compound concentration 100, 1/KCl 0.125 (units not given)",0.0086 and 0.0083 and 0.0082
same,"reciprocal K+-stimulated ATPase activity, Lineweaver-Burk raw data","H+,K+-ATPase [1]; compound concentration 100, 1/KCl 0.2 (units not given)",0.011 and 0.0106 and 0.0113
same,"reciprocal K+-stimulated ATPase activity, Lineweaver-Burk raw data","H+,K+-ATPase [1]; compound concentration 100, 1/KCl 0.5 (units not given)",0.0167 and 0.0156 and 0.0168
same,"reciprocal K+-stimulated ATPase activity, Lineweaver-Burk raw data","H+,K+-ATPase [1]; compound concentration 100, 1/KCl 1 (units not given)",0.0412 and 0.0415 and 0.043
same,"reciprocal K+-stimulated ATPase activity, Lineweaver-Burk raw data","H+,K+-ATPase [1]; compound concentration 100, 1/KCl 2 (units not given)",0.056 and 0.0496 and 0.0604
same,"reciprocal K+-stimulated ATPase activity, Lineweaver-Burk raw data","H+,K+-ATPase [1]; compound concentration 400, 1/KCl 0.05 (units not given)",0.0084 and 0.0076 and 0.008
same,"reciprocal K+-stimulated ATPase activity, Lineweaver-Burk raw data","H+,K+-ATPase [1]; compound concentration 400, 1/KCl 0.1 (units not given)",0.0109 and 0.0112 and 0.011
same,"reciprocal K+-stimulated ATPase activity, Lineweaver-Burk raw data","H+,K+-ATPase [1]; compound concentration 400, 1/KCl 0.125 (units not given)",0.0123 and 0.011 and 0.0111
same,"reciprocal K+-stimulated ATPase activity, Lineweaver-Burk raw data","H+,K+-ATPase [1]; compound concentration 400, 1/KCl 0.2 (units not given)",0.0153 and 0.0154 and 0.0157
same,"reciprocal K+-stimulated ATPase activity, Lineweaver-Burk raw data","H+,K+-ATPase [1]; compound concentration 400, 1/KCl 0.5 (units not given)",0.0261 and 0.0253 and 0.0282
same,"reciprocal K+-stimulated ATPase activity, Lineweaver-Burk raw data","H+,K+-ATPase [1]; compound concentration 400, 1/KCl 1 (units not given)",0.069 and 0.0649 and 0.0653
same,"reciprocal K+-stimulated ATPase activity, Lineweaver-Burk raw data","H+,K+-ATPase [1]; compound concentration 400, 1/KCl 2 (units not given)",0.097 and 0.0973 and 0.106
same,inhibition mode,"H+,K+-ATPase [1]; double reciprocal plot, versus K+",purely competitive with K^+
same,IC50,"H+,K+-ATPase [2]",700 ± 40 nM
same,"H+,K+-ATPase activity, raw data of dose-dependent inhibition","H+,K+-ATPase [2]; [PCAB] -3.30103 (log, unit not given)",0.01 and -0.01 and 0.22 and -0.22 and -0.74 and -0.4
same,"H+,K+-ATPase activity, raw data of dose-dependent inhibition","H+,K+-ATPase [2]; [PCAB] -3.52288 (log, unit not given)",1.74 and 1.71 and 2.79 and 2.38 and 1.76 and 2.41
same,"H+,K+-ATPase activity, raw data of dose-dependent inhibition","H+,K+-ATPase [2]; [PCAB] -4 (log, unit not given)",5.02 and 5.03 and 3.19 and 3.1 and 2.85 and 2.51
same,"H+,K+-ATPase activity, raw data of dose-dependent inhibition","H+,K+-ATPase [2]; [PCAB] -4.30103 (log, unit not given)",5.51 and 5.6 (2×) and 5.65 and 5.75 and 5.83
same,"H+,K+-ATPase activity, raw data of dose-dependent inhibition","H+,K+-ATPase [2]; [PCAB] -4.52288 (log, unit not given)",5.58 and 6.16 and 6.26 and 6.39 and 7.23 and 7.48
same,"H+,K+-ATPase activity, raw data of dose-dependent inhibition","H+,K+-ATPase [2]; [PCAB] -5 (log, unit not given)",9.37 and 9.6 and 11.28 and 10.91 and 10.15 and 11.11
same,"H+,K+-ATPase activity, raw data of dose-dependent inhibition","H+,K+-ATPase [2]; [PCAB] -5.52288 (log, unit not given)",20.15 and 21.1 and 19.71 and 21.04 and 20.73 and 20.63
same,"H+,K+-ATPase activity, raw data of dose-dependent inhibition","H+,K+-ATPase [2]; [PCAB] -6 (log, unit not given)",39.09 and 39.39 and 38.28 and 36.79 and 38.33 and 39.14
same,"H+,K+-ATPase activity, raw data of dose-dependent inhibition","H+,K+-ATPase [2]; [PCAB] -6.30103 (log, unit not given)",57.6 and 58.17 and 57.79 and 57.15 and 58.12 and 57.53
same,"H+,K+-ATPase activity, raw data of dose-dependent inhibition","H+,K+-ATPase [2]; [PCAB] -7 (log, unit not given)",90.69 and 91.88 and 87.97 and 84.74 and 90.82 and 88.26
same,"H+,K+-ATPase activity, raw data of dose-dependent inhibition","H+,K+-ATPase [2]; [PCAB] -8 (log, unit not given)",101.14 and 100.91 and 95.09 and 94.94 and 96.97 and 96.94
same,"H+,K+-ATPase activity, raw data of dose-dependent inhibition","H+,K+-ATPase [2]; [PCAB] -11 (log, unit not given; possibly placeholder for no compound)",102.84 and 103.26 and 99.81 and 97.12 and 97.38 and 101.76
Cc1nc2c(OCc3ccccc3)cccn2c1CC#N [SCH28080],Ki,"H+,K+-ATPase [3]; pH 6.11",20 nM
same,Ki,"H+,K+-ATPase [3]; pH 7.35",66 nM
COCCO[C@@H]1c2ccn3c(C)c(C)nc3c2N[C@H](c2ccccc2)[C@H]1O [soraprazan],times higher apparent affinity than SCH28080,"H+,K+-ATPase [4]",> 7 times
